Laboratory results from patent US6605424B1, “Method of detecting inhibitors of agonist-specific desensitization” (Duke University, priority 1989, dated 2003).
No end group written: not given here.

Columns and labels:
βAR kinase [1] = biological target: T1, βAR kinase (Bos taurus, UniProt P21146); test: Phosphorylation of β2AR and synthetic β2AR peptides by βAR kinase (substrate kinetics); type: biochemical, bovine; details: for phosphorylation by βAR kinase: FIG. 10; for Ratio (Vmax/Km relative to β2AR + ISO): substrate of βAR kinase
T1 construct: βAR kinase was purified from bovine cerebral cortex; from tissue; host or cells: bovine cerebral cortex
T1 sequence (P21146 1-689): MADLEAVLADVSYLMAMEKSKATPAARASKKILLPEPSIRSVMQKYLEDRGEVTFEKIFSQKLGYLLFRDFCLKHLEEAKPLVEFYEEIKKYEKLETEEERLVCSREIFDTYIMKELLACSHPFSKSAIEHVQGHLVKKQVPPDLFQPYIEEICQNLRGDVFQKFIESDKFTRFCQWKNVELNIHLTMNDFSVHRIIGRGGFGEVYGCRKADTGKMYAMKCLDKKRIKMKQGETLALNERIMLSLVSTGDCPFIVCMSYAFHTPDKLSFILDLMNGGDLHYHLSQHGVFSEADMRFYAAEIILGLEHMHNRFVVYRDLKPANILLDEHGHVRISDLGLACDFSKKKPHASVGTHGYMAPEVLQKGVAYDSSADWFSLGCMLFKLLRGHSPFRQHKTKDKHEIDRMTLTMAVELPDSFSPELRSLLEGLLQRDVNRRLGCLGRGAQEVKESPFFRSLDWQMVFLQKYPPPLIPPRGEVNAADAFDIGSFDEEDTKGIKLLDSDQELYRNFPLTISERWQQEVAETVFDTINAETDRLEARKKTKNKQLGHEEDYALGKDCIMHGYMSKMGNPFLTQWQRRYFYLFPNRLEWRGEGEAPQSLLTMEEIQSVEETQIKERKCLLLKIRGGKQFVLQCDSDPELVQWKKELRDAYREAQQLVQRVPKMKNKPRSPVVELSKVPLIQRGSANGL
Method: FIG. 11. Kinetic parameters of the βAR kinase for β2AR. Reconstituted β2AR (0.05-0.3 μM) was incubated for 15 min at 30° C. with purified βAR kinase (˜30 ng) in the presence (◯) or absence (●) of 50 μM (−)-isoproterenol. Reactions were stopped by the addition of SDS sample buffer before electrophoresis on a 10% SDS polyacrylamide gel. ^32P-labeled receptor was determined by cutting and counting the dried gel following […] autoradiography.
FIG. 12. Kinetic parameters of the βAR kinase for synthetic peptides CT-2 and CT-3. The synthetic β2AR peptides CT-2 (0.6-3.3 mM;Δ) and CT-3 (0.6-4.3 mM; ▴) were incubated for 60 min at 30° C. with purified βAR kinase (˜30 ng). Reactions were stopped by the addition of SDS urea sample buffer before electrophoresis on a 9% SDS urea polyacrylamide gel. ^32P-labeled peptide was determined by cutting and counting the gel following autoradiography.
(§1) βAR kinase was purified from bovine cerebral cortex by modification of a previously described procedure (Benovic et al (1987) J. Biol. Chem. 262:9026-9032). Briefly, 250 g of bovine cortex was homogenized and the resulting high speed supernatant fraction was precipitated with 13-26% ammonium sulfate. This material was initially chromatographed on an Ultrogel AcA34 column equilibrated with 5 mM Tris-HCl, pH 7.5, 2 mM EDTA, 5 μg/ml leupeptin, 5 μg/ml pepstatin, 15 μg/ml benzamidine, 0.2 mM phenylmethyl sulfonyl fluoride (buffer A). The peak activity was diluted 1:1 with buffer A containing 0.02% triton X-100 and applied to a DEAE Sephacel column. Elution was accomplished with a 0-80 mM NaCl gradient in buffer A containing triton X-100. The peak activity was then applied directly to a CM Fractogel column and eluted with a 0-100 mM NaCl gradient in buffer A containing triton X-100. The purified kinase was stored at 4° C.
Phosphorylation of βAR was accomplished by incubating reconstituted βAR (0.5-5 pmol/incubation) with βAR kinase (10-50 ng) in a buffer containing 20 mM Tris-HCl, pH 7.5, 2 mM EDTA, 10 mM NaCl, 5 mM MgCl2, 5 mM sodium phosphate, 0.5 mM ascorbic acid, 0.15 mM [γ-^32P]ATP (1-5 cpm/fmol) at 30° C. for the indicated time (see Figures indicated below and corresponding description). Some incubations also contained 50 μM (−)-isoproterenol. Incubations were stopped by the addition of 50 μl of SDS sample buffer followed by electrophoresis on 10% homogeneous polyacrylamide gels. Phosphorylated βAR was visualized by autoradiography and the corresponding bands were excised and counted to determine the pmol of phosphate incorporated.
Synthetic βAR peptides were phosphorylated as follows by βAR kinase. […] Following autoradiography the phosphorylated peptides were excised and counted to determine the amount of phosphate incorporated. […]

βAR kinase [2] = biological target: T1, βAR kinase; test: Inhibition of β2AR phosphorylation by βAR kinase by synthetic peptides (Example III); type: biochemical, bovine
Method: FIG. 13. Inhibition of β2AR phosphorylation by synthetic peptides. Reconstituted β2AR (˜0.4 pmol) was incubated for 30 min at 30° with purified βAR kinase (˜30 ng) in the presence of 50 mM Tris-HCl, pH 7.5, 2 mM EDTA, 10 mM NaCl, 5 mM MgCl2, 5 mM sodium phosphate, 50 μM (−)-isoproterenol and 0.10 mM [γ^32P]ATP (2.0 cpm/fmol). Synthetic β2AR peptides were varied from 0 to 1 mM and included CI (Δ), CII (▴), CIII-2 (◯) and CT-1 (●). Reactions were stopped by the addition of […]. ^32P-labeled receptor was determined by cutting and counting the dried gel following autoradiography.
The β2-adrenergic receptor from hamster lung was purified to apparent homogeneity by sequential affinity and high performance liquid chromatography as described (Benovic et al (1984) Biochemistry 23:4510-4518). The purified receptor was reinserted into phosphatidylcholine vesicles as previously described (Cerione et al (1983) Nature 306:562-566). The protein-lipid pellets were resuspended in 20 mM Tris-HCl, pH 7.2, 2 mM EDTA and used as a substrate for the βAR kinase.
as §1
The inhibition of substrate phosphorylation by βAR kinase in the presence of synthetic peptides was assayed as follows. Reconstituted βAR (0.2-1 pmol/inclubation) was incubated with βAR kinase (10-30 ng) in a buffer containing 50 mM Tris-HCl, pH 7.5, 2 mM EDTA, 10 mM NaCl, 5 mM MgCl2, 5 mM sodium phosphate, 50 μM (−)-isoproterenol, 0.10 mM [γ-^32P]ATP (1-3 cpm/fmol) at 30° C. for 30 min. Synthetic β2AR peptides were varied in concentration from 0 to 2 mM. Reactions were quenched by the addition of SDS sample buffer followed by gel electrophoresis. In some experiments urea treated rod outer segments (Wilden et al (1982) Biochemistry 21:3014-3022; Shichi et al (1978) J. Biol. Chem. 253:7040-7046) were used as the substrate for βAR kinase. To further define the specificity of the peptide inhibition, phosvitin, casein (see Example I) and the synthetic peptides CT-2 and CT-3 were used as substrates for βAR kinase.
SDS polyacrylamide gel electrophoresis was performed by the method of Laemmli (Nature (1970) 227:[…]) using 10 or 15% homogeneous slab gels. SDS sample buffer contained 8% SDS, 10% glycerol, 5% β-mercaptoethanol, 25 mM Tris-HCl, pH 6.5 and 0.003% bromphenol blue. SDS urea polyacrylamide gel electrophoresis was carried out using 6.5 M urea, 0.1% SDS, 100 mM H3PO4, pH 6.8 with Tris-HCl and 9% acrylamide (Swank et al (1971) Anal. Biochem. 39:462). SDS urea sample buffer contained 1% SDS, 8M urea, 10 mM H3PO4, pH 6.8 with Tris-HCl, 1% β-mercaptoethanol and 0.003% bromphenol blue.

[3] = tested on: β2ARs in permeabilized A431 cells; test: Desensitization of β2ARs in permeabilized A431 cells; type: cell-based, human; details: 100 μM
Method: Permeabilization of cells was accomplished as follows. Human epidermoid carcinoma A431 cells were grown to about 95% confluence in Dulbecco's modified Eagle's medium supplemented with 10% fetal calf serum. Cells were harvested with collagenase, washed three times with calcium-free phosphate-buffered saline (PBS), then washed twice in 150 mM potassium glutamate/10 mM Hepes/5 mM EGTA/7 mM MgCl2, pH 7.1 (KG buffer), and finally resuspended in KG buffer supplemented with 5 mM glucose and 2 mM ATP (KG-A buffer) at a density of 4×10^7 cells per ml.
At 4×10^7 cells per ml, about 0.015% digitonin was necessary to achieve permeabilization of >95% cells as assessed by staining with trypan blue. In all experiments, digitonin was added stepwise until >95% of the cells were trypan blue positive.

βAR kinase [4] = biological target: T1, βAR kinase; test: Phosphorylation of purified reconstituted β2ARs by purified βAR kinase (Example II); type: biochemical, bovine; details: 100 μM
Method: FIG. 7. […] (Inset) Relevant section of a representative autoradiogram. Data are means±SEM of three independent experiments. […] Desensitization was measured as the percent loss of stimulation by 10 μM (−)-isoproterenol of adenylyl cyclase activity in membranes. […] Data are means±SEM of four independent experiments.
Purified β2ARs were inserted into phosphatidylcholine vesicles by chromatography on Extracti-gel, followed by polyethylene glycol treatment and centrifugation at 280,000×g for 90 min (Cerione et al (1984) Biochemistry 23:4519-4525). Phosphorylation of the reconstituted receptors by purified βAR kinase was done in the presence of 50 μM (−)-isoproterenol as described (Benovic et al (1987) J. Biol. Chem. 262:9026-9032). Subsequently, the samples were subjected to sodium dodecyl sulfate polyacrylamide gel electrophoresis on 10% gels (Laemmli (1970) Nature 227:680-685). The phosphorylated β2ARs were visualized by autoradiography, and the corresponding bands were cut out and their content of ^32P quantified.

GYSSNSNGKTDYMGEASGCQLGQEKESER [CT-2 (353-381)]
phosphorylation by βAR kinase (βAR kinase [1]): are phosphorylated by βAR kinase
Ratio (Vmax/Km relative to β2AR + ISO) (βAR kinase [1]): 2.3 × 10^−6
IC50 (βAR kinase [2]; hamster β2AR peptides, ND = no significant inhibition at ˜500 μM, read-out: IC50 (μM), inhibition of β2AR phosphorylation by βAR kinase): 142 µM

QGTVPSLSLDSQGRNCSTNDSPL [CT-3 (396-418)]
phosphorylation by βAR kinase (βAR kinase [1]): are phosphorylated by βAR kinase
Ratio (Vmax/Km relative to β2AR + ISO) (βAR kinase [1]): 1.3 × 10^−6
inhibition of β2AR phosphorylation (βAR kinase [2]; tested at ˜0.5 mM): do not inhibit

AKFERLQTVTN [β2AR-(59-69)]
Inhibition of Desensitization, % [3]: 3 ± 12%
inhibition at 100 µM (βAR kinase [4]): 0%
